# Experiment: Human HepG2 cell viability assay in 384 well format
# Format: toxicity, cell-based
# Design: dose 125 nL, time 70.5 hour; concentration not given beside the values
# Conditions: HepG2 cells, read-out: Inhibition
row,SMILES,cytotoxicity at 70.5 h [%]
1,CC(NC(=O)N1CCN(c2cccs2)CC1)c1ccncc1 (stereo unspecified),-3.43
2,CCn1cnnc1CNC(=O)NCC(O)c1ccc(OC)cc1 (stereo unspecified),-4.35
3,CN(C)CCN(C)C1CCCN(C(=O)c2ccc(Cn3ccnc3)o2)C1 (stereo unspecified),-9.94
4,COc1ccccc1-c1ncc(CN2CCCC[C@H](N(C)C)C2)s1,4.63
5,CCNC(=O)c1cccc(CNC(=O)c2cnc(C(C)(C)C)s2)c1,2.86
6,CN1CCN(C(=O)C2CCN(c3cccnn3)C2)CC1 (stereo unspecified),-6.3
7,CC(NC(=O)NCc1ccccc1F)(C(=O)O)c1ccco1 (stereo unspecified),-2.87
8,N#Cc1ccc(F)c(CN2CCCC2Cn2cccn2)c1 (stereo unspecified),-5.17
9,Cc1nc(-c2ccc(S(=O)(=O)N3CCCCC3)cc2)co1,-8.94
10,CO[C@@H]1CC[C@@H](N(C)C(=O)COc2ccc(F)cc2)[C@H]1O,-28.5
11,CC(O)CNCc1ccc(OCc2ccc3c(c2)OCCO3)cc1 (stereo unspecified),19.4
12,Cc1nn(C)c(N(C)C)c1CNC1CCc2cc(F)ccc21 (stereo unspecified),-4.67
13,CCCn1nc(C(=O)N(C)Cc2nnc3n2CCC3)ccc1=O,-6.95
14,CCc1cnc(CN(C)C(=O)Nc2cnc3c(c2)c(C)nn3C)s1,-2.27
15,O=C(C1CCCO1)N1CCC(c2nc(-c3ccccc3)n[nH]2)CC1 (stereo unspecified),1.35
16,CCOc1cccc2c1OCC(C(=O)NS(=O)(=O)c1ccc(Cl)cc1)=C2,21.1
17,CNC(=O)C1(CCCc2ccccn2)CCN1Cc1coc(C)n1 (stereo unspecified),14.6
18,CCCc1nnc(N2CCN(C3CCCC3)CC2)o1,-14.3
19,COCc1noc(C2(c3ccc(F)cc3)CCC2)n1,-0.0433
20,O=C(c1cn(CC(=O)N2CCCCC2)c2ccccc12)C1CC1,24
21,COCCOC1CCN(C(C(=O)O)c2ccc(OC)c(F)c2)CC1 (stereo unspecified),-6

row,SMILES,cytotoxicity at 70.5 h [%]
1,CC(C)Oc1ncc(C(=O)N2CCC(CC(N)=O)CC2)cc1Cl,-8.52
2,Cc1cc(C)nc(N2CCCC(C(=O)Nc3n[nH]c(C(C)C)n3)C2)n1 (stereo unspecified),-7.23
3,CCOCC(=O)N1CCc2c(CN(C)C)nn(C(C)C)c2C1,-4.01
4,CC(C)S(=O)(=O)N1CCCC(c2cccc(C(=O)O)c2)C1 (stereo unspecified),-10.1
5,CN1CCN(Cc2ccncc2)C(=O)C12CCN(Cc1ccsc1)CC2,2.26
6,CCOc1cc(CNCCCn2ccnc2)cc(Cl)c1OC,3.61
7,CCCn1ncc(C(=O)N2CCCC(OCc3ccccn3)C2)c1C (stereo unspecified),-4.73
8,c1ccc(-c2cnc(CN3CCCC3Cn3cncn3)o2)cc1 (stereo unspecified),-14.6
9,Cc1ccc(CNCC2Cn3nncc3CO2)o1 (stereo unspecified),-3.52
10,CCCc1nc(CN(CC)C(=O)c2ccc3[nH]cnc3c2)no1,23.9
11,Cn1ccnc1COc1ccc(CSc2nncn2C2CC2)cc1,-8.64
12,CCCC(=O)NC1CCCN(c2cncc(Br)c2)C1 (stereo unspecified),-10.5
13,Cc1nnc(C2CCN(C(=O)c3ccsc3)CC2)s1,-5.71
14,COc1nccnc1N1CCC2(CC1)[C@H](O)C[C@@H]2OCCN(C)C,-7.06
15,COc1cccc(CCNC(=O)CCS(=O)(=O)C2CCCC2)c1,-12.4
16,Cc1ccc(C(N)=O)cc1NCCOc1cccc(C#N)c1,-4.01
17,NC(=O)C(CNC(=O)Cc1ccc(F)cc1)Cc1ccc(F)cc1 (stereo unspecified),-7.46
18,CC(C(=O)N1CCN(C(=O)c2ccc(F)cc2)CC1)n1ccnc1 (stereo unspecified),-4.23
19,CCC[C@H]1CN(Cc2nccn2C)C[C@@H]1NC(=O)C1(COC)CCC1,-4.15
20,CC(C)N(C)C(=O)C1=NOC2(CCN(C(=O)c3cccn3C)C2)C1 (stereo unspecified),24.9
21,COc1cc2ncn(Cc3ncc[nH]3)c(=O)c2cc1OC,-23.4

row,SMILES,cytotoxicity at 70.5 h [%]
1,O=C(NCc1cccnc1N1CCc2ccccc2C1)c1cnc[nH]1,-10.2
2,CC(C)c1n[nH]c(C(=O)Nc2ccccn2)c1Br,12.4
3,CCOC(=O)[C@H]1[C@@H](O)C(=O)N(C)C12CCN(C(=O)CC(C)C)CC2,-6.09
4,CC(C)N(C)[C@@H]1CCN(Cc2nccs2)[C@H]1Cc1ccncc1,-8.84
5,CC(=O)N1CCCN(Cc2csc(C)n2)c2ccccc21,-2.52
6,CC(CCn1cccn1)NCc1n[nH]c2c1CCCCC2 (stereo unspecified),22.7
7,O=C(c1ccc[nH]1)N1Cc2nccn2CC(Cn2ncccc2=O)C1 (stereo unspecified),-6.79
8,CCCS(=O)(=O)N1C[C@H]2C[C@H](C(=O)N3CCCC3)[C@@H](C1)O2,-3.05
9,CSCC[C@H](NC(=O)Cn1ccc2ccc(Cl)cc21)C(=O)O,-16.7
10,COc1ccccc1OC1(C(=O)O)CCN(c2cnccn2)CC1,47.4
11,Cc1ccccc1NC(=O)Nc1cc(N2CCCC2)ncn1,10.8
12,Cc1ccc(CN2C[C@H](O)C[C@H]2c2nc(-c3ccc(F)cc3)no2)cc1,-7.37
13,O=C(NC1CC1)c1ccc2ccc(N3CCN(CC4CC4)CC3)n2c1,6.77
14,COc1cc(Cl)c(CN2CCC(C(N)=O)C2)cc1Cl (stereo unspecified),4.93
15,Cn1nccc1CNC(=O)Cn1nc(C(F)(F)F)cc1C1CC1,-10.5
16,CC(C)C(CCO)NC(=O)Nc1cc(F)ccc1-n1cccn1 (stereo unspecified),-3.1
17,N#Cc1ccc(F)c(CN2CCNC(=O)C2c2cccs2)c1 (stereo unspecified),18
18,COc1cc(NCc2c(C)noc2C)c(OC)cc1Cl,10.4
19,CC(=O)N1CCCN(C(=O)NCCNc2ccccn2)CC1,2.71
20,O=C(c1cccc2c1OCCO2)N1CCCC1Cn1cccn1 (stereo unspecified),-8.07
21,CC(C)Cc1cc(C(=O)NCC(c2ccc(F)cc2)N(C)C)n(C)n1 (stereo unspecified),-15.4

row,SMILES,cytotoxicity at 70.5 h [%]
1,CC(C)CN1CC(C(=O)N(C)CCc2cn[nH]c2)CC1=O (stereo unspecified),-6.49
2,O=c1n(CCNCc2cccc3ccccc23)nc2ccccn12,-12.6
3,COc1ccc(NC(=O)CCNc2ncccn2)cn1,-30.9
4,CCn1cc(S(=O)(=O)N2CCCCCC2c2cc(C)no2)cn1 (stereo unspecified),0.308
5,O=C(NC[C@H]1CCCN1)c1cc(COc2cccc(C(F)(F)F)c2)[nH]n1,-2.98
6,c1nc(N2CCCC2)ncc1CN1CCCC(CN2CCCCC2)C1 (stereo unspecified),24.4
7,COc1ccc([C@@H]2CN(C(=O)CCn3cccn3)C[C@H]2NC(C)=O)cc1,6.76
8,O=C(NCC1CC1)[C@@H]1CC[C@@H]2[C@@H](CCN2CCOCc2ccccc2)O1,-9.94
9,Cc1csc(CN(C)C(=O)C2CCC(=O)N(CCN(C)C)C2)n1 (stereo unspecified),-3.99
10,O=C(c1ncoc1C1CC1)N1CCN(CCOc2ccccc2)CC1,26
11,OCC(CO)Nc1nc(C(F)F)nc2ccccc12,-3.24
12,Cc1ccc(OCC(C)NS(C)(=O)=O)cc1C (stereo unspecified),-3.53
13,O=C(CN1CCOC(c2ccc(Cl)c(Cl)c2)C1)NCc1ccco1 (stereo unspecified),3.47
14,CC1CCN(CCNC(=O)C2CCN(C(=O)NC(C)C)CC2)CC1,-6.3
15,Fc1cc(CCNc2ccc3nccn3n2)c2c(c1)COCO2,5.74
16,CCCN1CCN(C(=O)Nc2ccccc2Cl)[C@H]2CS(=O)(=O)C[C@H]21,-4.21
17,Cc1cc(CN2CC[C@H]3OCC[C@@]3(C(=O)NC(C)C)C2)no1,3.85
18,Cc1cc(C(=O)Nc2ccc(OCC3CCOCC3)cc2)[nH]n1,1.95

# Reference: ChEMBL document CHEMBL3507680, “University of Dundee, Gates Library screen for HepG2 cell viability”
